Experiments:
Format in all cases: functional
Escherichia coli = test: Antimicrobial activity against Escherichia coli ATCC 33694 measured after 18 hrs
Pseudomonas aeruginosa [1] = test: Antimicrobial activity against Pseudomonas aeruginosa measured after 18 hrs
Pseudomonas aeruginosa [2] = test: Antimicrobial activity against Pseudomonas aeruginosa KCTC 1637 measured after 18 hrs

Row | Substance | LD (Escherichia coli) [µM] | LD (Pseudomonas aeruginosa [1]) [µM] | LD (Pseudomonas aeruginosa [2]) [µM]
1 | H-KWKLFKKIGIGKFLHSAKKF-NH2 | 6.25 | 1.56 | –
2 | H-KWKKLLKKPLLKKLLKKL-NH2 | – | – | 0.78
